For series [1], the system named is T-cell counts. To be noted: AIDS patients; fenfluramine with phentermine; cited from earlier work.
Series [2] concerns human percoll-fractionated peripheral blood lymphocytes mediated NK activity. Conditions: in vitro, cited from earlier work.
Series [3] has as its system fungal infections. To be noted: AIDS patients; cited from earlier work.
The conditions of series [4]: mouse; cited from earlier work.
In series [5] the test system is K562 human tumor cells. As to the kind of experiment: Natural killer cell cytotoxicity of human PBMC against K562 tumor cells in vitro. It is filed as cell-based. Here is the method: Prior to conducting the above experiment, we examined the dose dependent effects of d-FEN on the ability of human PBMC obtained from five healthy volunteers (person Caucasians) to kill human K562 tumor cells in vitro. The potential cytotoxic enhancing effects of d-FEN and d-norFEN were compared using PBMC from two of the five human donors.
For assessment of immunological parameters of human PBMC, venous blood as aseptically drawn into sterile 10 ml tubes containing 20 U/ml preservative free heparin, diluted with an equal volume of Hank's Balanced Salt Solution (HBSS), layered over Lymphocyte Separation Medium (LSM, Bionetics, Kensington, Md.) and centrifuged at 1,000 ×g for 30 min. After centrifugation, the mononuclear cell layer was recovered from the interface and washed twice in HBSS and enumerated.
The K562 cell line originated from a chronic myelogenous leukemia patient and was obtained from Dr. T. Ellis (Director, Cellular Immunology Laboratory, LUMC). The K562 cells used for assessment of cytotoxic activity were maintained in long term cultures using Corning 25 cm^2 tissue culture flasks (Corning Glass Works, Corning, N.Y.) containing RPMI 1640 (Gibco Laboratories, Grand Island, N.Y.) supplemented with low LPS 10% fetal bovine serum (FBS; Gibco), 100 units/ml penicillin, 100 μg/ml streptomycin (Whittaker M. A. Bioproducts, Walkersville, Md.), 0.1 mM non-essential amino acids, and 2 mM L-glutamine (Gibco). This medium was used throughout, except where noted, and is referred to as "culture medium". The K562 cells were grown in suspension and were passaged three times per week by transfer of 10^6 K562 cells into a flask containing 10 ml of fresh culture medium. The K562 cells injected into the SCID mice were supplemented with fresh medium at a 1:3 dilution the day before administration. They were washed once in medium, pelleted by centrifugation at 500 ×g for 10 min., then resuspended at a concentration of 5×10^7. Subsequently, 0.2 ml (1×10^7 cells) of the cell suspension was injected (i.p.) into each SCID mouse. The K562 cells were administered to the animals four days after the injection of PBMC.
The K562 tumor cell lines maintained in vitro were washed once in culture medium, pelleted by centrifugation at 500×g for 10 min and resuspended in approximately 0.1 ml of culture medium. Subsequently, 100 μCi of [^51 Cr] (New England Nuclear, Boston, Mass.) was added to 1×10^5 cells in a final volume of 0.2 ml. The cells were incubated at 37° C. with 5% CO2 for 1 h with agitation every 10 min, then washed 3 times in HBSS, resuspended to 5×10^4 cells/ml in culture medium and 0.1 ml (5×10^3) aliquoted to each well of a 96 well round bottom assay plate (Corning Glass Works, Corning, N.Y.). Radiolabelled K562 was cultured for 4 h with lymphocytes at effector to target ratios ranging from 50:1 to 6:1. Following 4 h of culture the media was removed using a Skatron harvesting press (Skatron Inc., Sterling, Va.) and associated radioactivity determined. Maximum release was obtained by adding 0.05% Nonidet P-40 (Sigma Chemical Co., St. Louis, Mo.).
The results have been expressed as % cytotoxicity and calculated by the formula: % cytotoxicity=[(experimental DPM-minimum DPM)/(maximum DPM-minimum DPM)]×100.
All experimental means were calculated from triplicate values. Lytic units (LU) were calculated using a computer program written by David Coggins, FCRC, Frederick, Md.

The nature of series [6]: Plasma d-FEN and d-norFEN levels and half-life in mice. Conditions: mouse; d-FEN p.o. in drinking water; sacrificed 11:00-13:00 h. It is filed as in vivo. On the procedure: Mice like rats are prandial drinkers during the dark period of the light-dark cycle. The animals were sacrificed between 11:00 and 13:00 h, 4-6 h after the end of the dark period.

As for `CCNC(C)Cc1cccc(C(F)(F)F)c1` (racemic) [fenfluramine], the “T-cell counts in words” value in series [1] is given as “significant improvement of their T-cell counts”.
As for `NCCc1c[nH]c2ccc(O)cc12` [5-HT], the “effect on NK activity in words” value in series [2] (5-HT dose dependent) is given as “stimulatory effects”. Further, the “duration of NK stimulation” value in series [2] is 16 h.
`C[C@@H]1[C@H](O)[C@@H](C)/C=C/C=C/C=C/C=C/C=C/C=C/C=C/[C@H](O[C@@H]2O[C@H](C)[C@@H](O)[C@H](N)[C@@H]2O)C[C@@H]2O[C@](O)(C[C@@H](O)C[C@@H](O)[C@H](O)CC[C@@H](O)C[C@@H](O)CC(=O)O[C@H]1C)C[C@H](O)[C@H]2C(=O)O` [amphotericin B]: in series [3], the “effect on fungal infections in words” value is on record as “can suppress fungal infections, but for the first time appear to have no curative effect in AIDS patients”.
For the molecule `C[C@H](N)Cc1cccc(C(F)(F)F)c1` [d-norFEN], the t1/2 in series [4] is 6 h. The “percent increase in cytotoxicity” value was 29% in series [5] (0.25 ng/ml, DONOR #1); 19% in series [5] (0.25 ng/ml, DONOR #2); 24% in series [5] (0.50 ng/ml, DONOR #1); 28% in series [5] (0.50 ng/ml, DONOR #2); 11% in series [5] (1.00 ng/ml, DONOR #1); 13% in series [5] (1.00 ng/ml, DONOR #2). Moreover, in series [5] (PBMC of two donors), the “d-FEN vs d-norFEN effect on cytotoxicity in words” value is “virtually identical effects”. For the same molecule, the “effect on capacity of human NK cells to kill K562, in words” value in series [5] (conclusion) is “augments the capacity of human NK cells to kill the human tumor cell line, K562”. The “plasma d-FEN and d-norFEN levels at sacrifice” value in series [6] is recorded as “Neither d-FEN nor d-norFEN was detected”.

The values above are taken from patent US5955508A, “Method for the enhancement of lymphocyte activity against opportunistic microbial pathogens” (priority 1996, dated 1999).
